Tests used:
[1] = biological target: Delta-type opioid receptor (Rattus norvegicus, UniProt P33533); experiment: Displacement of [3H]diprenorphine from rat DOR expressed in rat C6 cells after 1 hr by liquid scintillation counting analysis
[2] = biological target: T1, Mu-type opioid receptor (Rattus norvegicus, UniProt P33535); experiment: Agonist activity at rat MOR expressed in rat C6 cells assessed as stimulation of [35S]GTPgammaS binding after 1 hr by liquid scintillation counting analysis
[3] = biological target: T1, Mu-type opioid receptor; experiment: Displacement of [3H]diprenorphine from rat MOR expressed in rat C6 cells after 1 hr by liquid scintillation counting analysis

T1 sequence (P33535 whole entry): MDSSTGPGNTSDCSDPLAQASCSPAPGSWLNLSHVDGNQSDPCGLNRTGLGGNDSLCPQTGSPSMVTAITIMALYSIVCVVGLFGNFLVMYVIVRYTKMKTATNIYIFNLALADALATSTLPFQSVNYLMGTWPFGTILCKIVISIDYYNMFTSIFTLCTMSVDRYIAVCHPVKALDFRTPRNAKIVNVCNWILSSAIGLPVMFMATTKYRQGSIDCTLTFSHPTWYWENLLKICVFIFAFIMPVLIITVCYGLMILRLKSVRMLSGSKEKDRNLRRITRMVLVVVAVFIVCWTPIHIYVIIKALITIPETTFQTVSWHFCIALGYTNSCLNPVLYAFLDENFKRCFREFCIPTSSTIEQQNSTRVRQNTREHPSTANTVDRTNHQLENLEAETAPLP
Sequence of Delta-type opioid receptor (P33533 whole entry): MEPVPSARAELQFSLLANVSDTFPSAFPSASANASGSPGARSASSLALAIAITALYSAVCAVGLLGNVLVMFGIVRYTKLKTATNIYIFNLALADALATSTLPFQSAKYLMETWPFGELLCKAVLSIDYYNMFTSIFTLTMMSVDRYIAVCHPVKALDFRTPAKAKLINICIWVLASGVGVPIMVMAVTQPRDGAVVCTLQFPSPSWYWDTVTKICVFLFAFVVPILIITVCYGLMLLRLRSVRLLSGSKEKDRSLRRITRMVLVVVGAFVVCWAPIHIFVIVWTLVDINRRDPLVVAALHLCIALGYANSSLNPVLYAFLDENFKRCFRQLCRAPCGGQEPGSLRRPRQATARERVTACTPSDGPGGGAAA

| SMILES | Ki [1] [nM] | EC50 [2] [nM] | Ki [3] [nM] |
| --- | --- | --- | --- |
| Cc1cc(O)cc(C)c1C[C@H](N)C(=O)N[C@@H]1CCNc2ccc(CCc3ccccc3)cc21 | 8.9 | 1.1 | 0.24 |
| Cc1cc(O)cc(C)c1C[C@H](N)C(=O)N[C@H]1CCNc2ccc(CCc3ccccc3)cc21 | 120 |  | 16 |

— BindingDB's records for doi:10.1021/jm400050y (University of Michigan, 2013)
